Experimental data as given in PubChem BioAssay (NCI).
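In this assay, cells in 96-well plates receive the compound at five concentrations for 48 hours. Endpoints are linearly interpolated between the surrounding concentrations. The concentration for full growth arrest is given as TGI.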

Tests used:
Assay in all cases: DTP human tumour cell line panel, 48 h
[1] = tested on: ACHN renal
[2] = tested on: IGROV1 ovarian
[3] = tested on: LOX IMVI melanoma
[4] = tested on: NCI-H522 lung
[5] = tested on: SNB-75 CNS
[6] = tested on: SW-620 colon
[7] = tested on: UACC-257 melanoma
[8] = tested on: UACC-62 melanoma
[9] = tested on: MDA-MB-435
[10] = tested on: T-47D breast

SMILES	TGI [1] [µM]	TGI [2] [µM]	TGI [3] [µM]	TGI [4] [µM]	TGI [5] [µM]	TGI [6] [µM]	TGI [7] [µM]	TGI [8] [µM]	TGI [9] [µM]	TGI [10] [µM]
O=C(OCc1ccccc1C1CSCSC1)c1cc(C(=O)OCc2ccccc2C2CSCSC2)c(C(=O)OCc2ccccc2C2CSCSC2)cc1C(=O)OCc1ccccc1C1CSCSC1	> 100	> 100	> 100	> 100	> 100	> 100	> 100	> 100	–	–
COC(=O)c1ccc(/C=C2\CCc3ccccc3C2=O)cc1	> 100	> 100	> 100	> 100	> 100	> 100	> 100	> 100	> 100	> 100
C=C[C@@](C)(/C=C/c1ccc(O)cc1)CCC=C(C)C	22.4	30.5	32.2	30.9	26.9	34	31.9	–	33.9	28.7
C/C(=N\Nc1ccccc1)C(CN(C)C)C(c1ccccc1)c1c(O)c2ccccc2oc1=O (stereo unspecified)	> 100	> 100	> 100	> 100	> 100	> 100	> 100	> 100	> 100	> 100
CCCCCCCCCCCCCCCCOCC(Cl)COP(=O)(O)OP(=O)(O)OCC1OC(n2cnc3c(N)ncnc32)C(O)C1O (stereo unspecified)	> 100	> 100	> 100	> 100	89.7	> 100	> 100	> 100	> 100	> 100
O=c1oc2ccc(Cl)cc2cc1-c1cn2ccsc2n1	> 100	> 100	> 100	47.9	> 100	> 100	> 100	> 100	> 100	> 100
COC1=CC(=O)C2=C(C1=O)[C@H]1CC[C@]3(C)[C@@H](OC(C)=O)CC[C@H]3[C@@H]1CC2	> 100	> 100	36.7	> 100	> 100	> 100	> 100	–	38.2	49.4
COc1ccc(C2=C(OC(=O)N(C)C)c3cccn3-c3cc(Cl)ccc3S2)cc1	–	> 10	> 10	–	> 10	> 10	> 10	> 10	> 10	> 10
Cc1cc2n([O-])cccc-2[n+](=O)c1	> 100	> 100	–	> 100	> 100	> 100	> 100	> 100	–	–
CC12CC(C/C1=N/O)C(C)(C)C2 (stereo unspecified)	> 100	> 100	–	> 100	> 100	> 100	> 100	> 100	> 100	> 100
NS(=O)(=O)c1cc(S(N)(=O)=O)c(NC(=O)N(c2ccccc2)c2ccccc2)c(Cl)c1Cl	76.5	25.6	25	27.1	–	> 100	27.6	93.2	67.2	–
CCOC(=O)/C(C#N)=C/N(CC)/N=C/c1ccccc1	> 100	> 100	–	> 100	> 100	> 100	> 100	> 100	> 100	> 100
CC(C)CCCC(C)[C@H]1CC[C@H]2N=C(Nc3ccccc3)CCC[C@]12C (stereo partly specified)	–	3.34	4.07	–	3.99	> 100	4.85	3.46	3.75	14.2
O=S1(=O)OCCOS(=O)(=O)C1Cc1nc2ccccc2[nH]1	> 100	–	38.1	–	–	–	> 100	–	> 100	–
COc1ccc(/C=C2\CCC(CNc3ccc(Br)cc3)C2=O)cc1 (stereo unspecified)	> 100	> 100	> 100	–	–	> 100	> 100	> 100	> 100	> 100
O=C1OI(C#Cc2ccccc2)c2ccccc21	5.42	6.17	> 100	–	10.3	5.14	25.2	19.3	14.1	10.8
COC(=O)/C=C/c1ccc2c(c1)CC1(Cc3ccccc3C1)C2	> 100	> 100	> 100	> 100	–	–	> 100	> 100	> 100	> 100
CC(C)C1CC(CO)(CNc2cc(Cl)nc(N)n2)C1 (stereo unspecified)	> 100	> 100	> 100	> 100	–	> 100	> 100	> 100	> 100	87.9
Nc1ncc(/C=N/O)c(NCC2(CO)CC(CCc3ccccc3)C2)n1 (stereo unspecified)	–	31.2	22.3	20.9	30.8	–	24.4	33.1	23.8	17.2
CCN(CC)CCCCC1CCN(CC(=O)N2c3ccccc3NC(=O)CC2C)CC1 (stereo unspecified)	> 100	> 100	47.6	> 100	> 100	> 100	> 100	> 100	–	–
Cc1cc([N+](=O)[O-])c(S(=O)(=O)c2ccccc2)c([N+](=O)[O-])c1	33.4	31.1	6.51	3.14	47.3	10.1	5.16	> 44.3	–	–
CC(C)(C)c1c(C(C)(C)C)c(=O)c1=O	> 100	–	> 100	–	> 100	> 100	> 100	> 100	> 100	–
CC(c1ccccc1)N1CC(C)(c2ccccc2)N(O)C(c2ccccc2)C1C (stereo unspecified)	45.4	> 100	30.1	32.3	55.2	68.1	45.1	–	–	–
